25 molecules from patent US9932340B2, “Substituted indoles” (AbbVie Inc., priority 2014, dated 2018) can be followed below.

Structures are written as SMILES. Bounds are passed on as bounds.

Chain of SUV420H1 enzyme (Q4FZB7 whole entry): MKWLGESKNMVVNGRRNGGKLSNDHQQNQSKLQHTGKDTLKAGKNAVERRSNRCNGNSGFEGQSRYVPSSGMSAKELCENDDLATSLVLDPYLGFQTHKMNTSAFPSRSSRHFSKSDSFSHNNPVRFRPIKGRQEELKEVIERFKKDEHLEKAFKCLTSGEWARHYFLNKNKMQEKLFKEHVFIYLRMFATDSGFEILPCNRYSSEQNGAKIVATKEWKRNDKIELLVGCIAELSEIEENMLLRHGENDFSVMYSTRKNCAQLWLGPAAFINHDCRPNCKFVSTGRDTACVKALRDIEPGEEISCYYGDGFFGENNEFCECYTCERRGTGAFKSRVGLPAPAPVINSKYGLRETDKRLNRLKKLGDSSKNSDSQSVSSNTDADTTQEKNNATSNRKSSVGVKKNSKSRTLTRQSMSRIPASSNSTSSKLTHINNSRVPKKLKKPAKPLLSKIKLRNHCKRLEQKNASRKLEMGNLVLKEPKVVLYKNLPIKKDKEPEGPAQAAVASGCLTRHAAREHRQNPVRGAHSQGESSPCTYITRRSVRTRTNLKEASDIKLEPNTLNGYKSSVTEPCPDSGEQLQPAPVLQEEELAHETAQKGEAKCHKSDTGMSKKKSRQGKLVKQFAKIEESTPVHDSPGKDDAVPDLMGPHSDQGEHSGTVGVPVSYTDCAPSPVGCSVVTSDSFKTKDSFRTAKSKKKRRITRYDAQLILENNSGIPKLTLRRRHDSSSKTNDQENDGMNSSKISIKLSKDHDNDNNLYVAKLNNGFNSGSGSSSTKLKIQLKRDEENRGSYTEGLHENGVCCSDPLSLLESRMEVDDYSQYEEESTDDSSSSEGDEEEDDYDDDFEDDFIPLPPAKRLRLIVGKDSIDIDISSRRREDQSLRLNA

This assay deals with SUV420H1 enzyme (Homo sapiens, UniProt Q4FZB7). Briefly: TR-FRET SAH SUV420H1 enzyme inhibition assay. The assay is classed as biochemical. The settings on record: Histone Peptide H4(8-30)me1 and SAM, overnight at room temp, TR-FRET detection of SAH, read-out: TR-FRET SAH_SUV420H1 IC50. In short, it runs like this:
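SUV420H1 (90 nM) preincubated 30 min with compound (3-fold dilutions, 50 to 0.00075 μM), then H4(8-30)me1 peptide 5 nM and SAM 4 nM added, overnight at room temp. SAH product detected by TR-FRET with Tb anti-SAH antibody and Oregon Green-SAH in RIPA buffer, 4 h; IC50 from Hill fit, asymptotes fixed 0-100%.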
Turning to `CCc1oncc1C(=O)NCc1cc2cc(Cl)cc(Cn3cnc4c(N)ncnc43)c2[nH]1` [Example 181, N-({7-[(6-amino-9H-purin-9-yl)methyl]-5-chloro-1H-indol-2-yl}methyl)-5-ethyl-1,2-oxazole-4-carboxamide], the IC50 was 2860 nM.
Then `Cc1cccc(C(=O)NCc2cc3cc(Cl)cc(Cn4cnc5c(N)ncnc54)c3[nH]2)c1` [Example 247, N-({7-[(6-amino-9H-purin-9-yl)methyl]-5-chloro-1H-indol-2-yl}methyl)-3-methylbenzamide], with 9380 nM; and `Cn1cnc2cc(C(=O)NCc3cc4cc(Cl)cc(Cn5cnc6c(N)ncnc65)c4[nH]3)ccc21` [Example 361, N-({7-[(6-amino-9H-purin-9-yl)methyl]-5-chloro-1H-indol-2-yl}methyl)-1-methyl-1H-benzimidazole-5-carboxamide], with 2150 nM.
`COc1ccccc1CNC(=O)NCc1cc2cc(Cl)cc(Cn3cnc4c(N)ncnc43)c2[nH]1` [Example 312, 1-({7-[(6-amino-9H-purin-9-yl)methyl]-5-chloro-1H-indol-2-yl}methyl)-3-(2-methoxybenzyl)urea]: the IC50 was greater than 50000 nM.
As for `N#Cc1ccc(C(=O)NCc2cc3cc(C4=CCOCC4)cc(Cn4cnc5c(N)ncnc54)c3[nH]2)c(F)c1` [Example 285, N-({7-[(6-amino-9H-purin-9-yl)methyl]-5-(3,6-dihydro-2H-pyran-4-yl)-1H-indol-2-yl}methyl)-4-cyano-2-fluorobenzamide], the IC50 was found to be 57.9 nM.
Consider `CCC(=O)c1cc2cc(Cl)cc(Cn3cnc4c(N)ncnc43)c2[nH]1` [Example 90, 1-{7-[(6-amino-9H-purin-9-yl)methyl]-5-chloro-1H-indol-2-yl}propan-1-one], for which the IC50 stood at 2240 nM.
Consider `CS(=O)(=O)c1ccc(C(=O)NCc2cc3cc(Cl)cc(Cn4cnc5c(N)ncnc54)c3[nH]2)c(Cl)c1` [Example 266, N-({7-[(6-amino-9H-purin-9-yl)methyl]-5-chloro-1H-indol-2-yl}methyl)-2-chloro-4-(methylsulfonyl)benzamide], for which the IC50 was 911 nM.
In the case of `Nc1ncnc2c1ncn2Cc1cc(Cl)cc2cc(CNC(=O)c3cnoc3)[nH]c12` [Example 141, N-({7-[(6-amino-9H-purin-9-yl)methyl]-5-chloro-1H-indol-2-yl}methyl)-1,2-oxazole-4-carboxamide], the IC50 came out at 783 nM.
Regarding `CC(C)c1noc2ncc(C(=O)NCc3cc4cc(Cl)cc(Cn5cnc6c(N)ncnc65)c4[nH]3)cc12` [Example 370, N-({7-[(6-amino-9H-purin-9-yl)methyl]-5-chloro-1H-indol-2-yl}methyl)-3-(propan-2-yl)[1,2]oxazolo[5,4-b]pyridine-5-carboxamide], the IC50 came out at 1690 nM.
Then `Nc1ncnc2c1ncn2Cc1cc(Cl)cc2cc(CNCCC(=O)O)[nH]c12` [Example 96, 3-[({7-[(6-amino-9H-purin-9-yl)methyl]-5-chloro-1H-indol-2-yl}methyl)amino]propanoic acid], with 16300 nM; and `COc1ccc(-c2cc(Cn3cnc4c(N)ncnc43)c3[nH]c(CNC(=O)c4c(C)noc4C)cc3c2)cc1` [Example 168, N-({7-[(6-amino-9H-purin-9-yl)methyl]-5-(4-methoxyphenyl)-1H-indol-2-yl}methyl)-3,5-dimethyl-1,2-oxazole-4-carboxamide], with 333 nM; and `Cc1noc(C)c1C(=O)NCc1cc2cc(-c3ccc(NS(C)(=O)=O)cc3)cc(Cn3cnc4c(N)ncnc43)c2[nH]1` [Example 174, N-[(7-[(6-amino-9H-purin-9-yl)methyl]-5-{4-[(methylsulfonyl)amino]phenyl}-1H-indol-2-yl)methyl]-3,5-dimethyl-1,2-oxazole-4-carboxamide], with 101 nM.
Turning to `Nc1ncnc2c1ncn2Cc1cc(Cl)cc2cc(CNC(=O)C3CCCC3)[nH]c12` [Example 119, N-({7-[(6-amino-9H-purin-9-yl)methyl]-5-chloro-1H-indol-2-yl}methyl)cyclopentanecarboxamide], the IC50 is 6410 nM.
As for `Nc1ncnc2c1ncn2Cc1cc(Cl)cc2cc(CNC(=O)c3ccc[nH]c3=O)[nH]c12` [Example 198, N-({7-[(6-amino-9H-purin-9-yl)methyl]-5-chloro-1H-indol-2-yl}methyl)-2-oxo-1,2-dihydropyridine-3-carboxamide], the IC50 came out at 12600 nM.
Then `Nc1ncnc2c1ncn2Cc1cc(Cl)cc2cc(CNC(=O)c3c(F)cccc3Cl)[nH]c12` [Example 227, N-({7-[(6-amino-9H-purin-9-yl)methyl]-5-chloro-1H-indol-2-yl}methyl)-2-chloro-6-fluorobenzamide], with 790 nM; and `Cc1ccc(CC(=O)NCc2cc3cc(Cl)cc(Cn4cnc5c(N)ncnc54)c3[nH]2)cc1` [Example 292, N-({7-[(6-amino-9H-purin-9-yl)methyl]-5-chloro-1H-indol-2-yl}methyl)-2-(4-methylphenyl)acetamide], with 32200 nM.
The value for `N#Cc1c[nH]c2ccc(C(=O)NCc3cc4cc(Cl)cc(Cn5cnc6c(N)ncnc65)c4[nH]3)cc12` [Example 369, N-({7-[(6-amino-9H-purin-9-yl)methyl]-5-chloro-1H-indol-2-yl}methyl)-3-cyano-1H-indole-5-carboxamide] was greater than 50000 nM.
On to `Nc1ncnc2c1ncn2Cc1cc(Cl)cc2cc(CNC(=O)Cc3ccncc3)[nH]c12` [Example 232, N-({7-[(6-amino-9H-purin-9-yl)methyl]-5-chloro-1H-indol-2-yl}methyl)-2-(pyridin-4-yl)acetamide], for which the IC50 turned out to be 1980 nM.
Then `CS(=O)(=O)Nc1ccc(-c2cc(Cn3cnc4c(N)ncnc43)c3[nH]c(CN)cc3c2)cc1` [Example 41, N-(4-{2-(aminomethyl)-7-[(6-amino-9H-purin-9-yl)methyl]-1H-indol-5-yl}phenyl)methanesulfonamide], with 236 nM.
On to `CS(=O)(=O)c1ccc(-c2cc(Cn3cnc4c(N)ncnc43)c3[nH]c(CN)cc3c2)cc1` [Example 37, 9-({2-(aminomethyl)-5-[4-(methylsulfonyl)phenyl]-1H-indol-7-yl}methyl)-9H-purin-6-amine], for which the IC50 was 321 nM.
The value for `Nc1ncnc2c1ncn2Cc1cc(Cl)cc2cc(CNC(=O)Cc3ccccn3)[nH]c12` [Example 230, N-({7-[(6-amino-9H-purin-9-yl)methyl]-5-chloro-1H-indol-2-yl}methyl)-2-(pyridin-2-yl)acetamide] was 16700 nM; that for `Nc1ncnc2c1ncn2Cc1cc(Cl)cc2cc(CNC(=O)[C@@H]3CCCN3)[nH]c12` [Example 115, (2S)—N-({7-[(6-amino-9H-purin-9-yl)methyl]-5-chloro-1H-indol-2-yl}methyl)pyrrolidine-2-carboxamide] was 3530 nM.
Then `Cc1cc(C(=O)NCc2cc3c(Cl)ccc(Cn4cnc5c(N)ncnc54)c3[nH]2)c(C)nn1` [Example 239, N-({7-[(6-amino-9H-purin-9-yl)methyl]-4-chloro-1H-indol-2-yl}methyl)-3,6-dimethylpyridazine-4-carboxamide], with 54.7 nM.
In the case of `CN1CCN(C(=O)c2ccc(-c3cc(Cn4cnc5c(N)ncnc54)c4[nH]c(CN)cc4c3)cc2)CC1` [Example 56, (4-{2-(aminomethyl)-7-[(6-amino-9H-purin-9-yl)methyl]-1H-indol-5-yl}phenyl)(4-methylpiperazin-1-yl)methanone], the IC50 was 240 nM.
Then `Cc1nc(N)c2ncn(Cc3cccc4cc[nH]c34)c2n1` [Example 4, 9-(1H-indol-7-ylmethyl)-2-methyl-9H-purin-6-amine], with 14100 nM.
